Test results taken from PubChem BioAssay (NCI).
Where “and” joins values, the source holds several entries; their conditions need not be identical. Equal entries are not always repeated.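 Protocol summary: plate cells (96-well), add compound at 5 concentrations, incubate 48 h, interpolate endpoints linearly. GI50 marks 50% less growth. TGI denotes the concentration required for complete inhibition of growth.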

Legend:
Test in all cases: NCI-60 cell line screen, 48 h
[1] = tested on: SF-268 CNS
[2] = tested on: NCI-H23 lung
[3] = tested on: OVCAR-4 ovarian
[4] = tested on: NCI-H226 lung
[5] = tested on: HT29 colon
[6] = tested on: SF-295 CNS
[7] = tested on: TK-10 renal
[8] = tested on: NCI/ADR-RES ovarian
[9] = tested on: SF-539 CNS
[10] = tested on: SK-OV-3 ovarian

## COC(=O)[C@]12CC[C@H]3CN(S(=O)(=O)c4ccc(C)cc4)[C@H]([C@H]31)[C@H](c1ccco1)N2S(=O)(=O)c1ccc(C)cc1
[1]
  TGI: > 100 µM
[2]
  TGI: > 100 µM
[3]
  TGI: > 100 µM
[4]
  TGI: > 100 µM
[5]
  TGI: > 100 µM
[6]
  TGI: > 100 µM
[7]
  TGI: > 100 µM
[8]
  TGI: > 100 µM
[9]
  TGI: > 100 µM
[10]
  TGI: > 100 µM

## Cc1ccc(C(=O)NC2C(=O)NC(C(C)C)C(=O)N3CCCC3C(=O)N(C)CC(=O)N(C)C(C(C)C)C(=O)OC2C)c2c1Oc1c(c(C(=O)NC3C(=O)NC(C(C)C)C(=O)N4CCCC4C(=O)N(C)CC(=O)N(C)C(C(C)C)C(=O)OC3C)c3nc(-c4ccccc4)c(=O)oc3c1C)N2 (stereo not given)
[2]
  TGI: 0.0919 µM
[4]
  TGI: 0.00507 µM
[6]
  TGI: 0.12 µM
[7]
  GI50: 0.013 µM
  TGI: 11.4 µM
[8]
  GI50: 0.0856 µM
  TGI: 2.59 µM and 2.37 µM
[9]
  TGI: 0.00264 µM
[10]
  TGI: 16.1 µM

## CCOC(=O)N1c2ccccc2N(C(=O)OCC)C1CC(=O)/C=C/c1ccccc1
[1]
  TGI: 9.82 µM
[2]
  TGI: 8.7 µM
[3]
  TGI: 6.33 µM
[4]
  TGI: 6.04 µM
[5]
  TGI: 8.41 µM
[6]
  TGI: 21.7 µM
[7]
  TGI: 14.4 µM
[8]
  TGI: 9.77 µM
[10]
  TGI: 23 µM

## Cc1cn(CC(=S)NCCc2c[nH]c3ccccc23)c(=O)[nH]c1=O
[1]
  TGI: > 100 µM
[2]
  TGI: > 100 µM
[3]
  TGI: > 100 µM
[4]
  TGI: > 100 µM
[5]
  TGI: > 100 µM
[8]
  TGI: > 100 µM
[9]
  TGI: > 100 µM
[10]
  TGI: > 100 µM

## C[C@@]12CC[C@@H](O)C[C@@H]1CC[C@H]1[C@H]2CC[C@@]2(C)[C@H](c3ccc(=O)oc3)CC[C@@]12O
[1]
  GI50: < 0.01 µM
  TGI: 0.0344 µM
[2]
  GI50: < 0.01 µM
  TGI: 0.0226 µM
[3]
  GI50: < 0.0124 µM
  TGI: 0.0639 µM
[4]
  GI50: < 0.0183 µM
  TGI: 0.0723 µM
[5]
  GI50: < 0.01 µM
  TGI: 0.0467 µM
[6]
  GI50: < 0.01 µM
  TGI: 0.025 µM
[7]
  GI50: < 0.01 µM
  TGI: 0.028 µM
[8]
  GI50: < 0.01 µM
  TGI: 0.0285 µM
[9]
  GI50: < 0.01 µM
  TGI: 0.0137 µM
[10]
  GI50: < 0.0118 µM
  TGI: 0.0451 µM

## O=C(O)C1=C(CO)Oc2cc3c(cc2C1c1ccc2c(c1)OCO2)OCO3 (stereo not given)
[2]
  TGI: > 100 µM
[3]
  TGI: > 100 µM
[5]
  TGI: > 100 µM
[6]
  TGI: > 100 µM
[7]
  TGI: > 100 µM
[9]
  TGI: > 100 µM
[10]
  TGI: > 100 µM

## C=C(C)[C@@H]1CC[C@]2(C(=O)O)CC[C@]3(C)[C@H](CC[C@@H]4[C@@]5(C)C/C(=C/c6ccco6)C(=O)C(C)(C)[C@@H]5CC[C@]43C)[C@@H]12
[1]
  GI50: 3.63 µM
  TGI: > 100 µM
[3]
  GI50: 5.9 µM
  TGI: > 100 µM
[5]
  GI50: 3.05 µM
  TGI: > 100 µM
[6]
  GI50: 3.24 µM
  TGI: > 100 µM
[7]
  GI50: 3.65 µM
  TGI: 46.9 µM

## c1ccc(-c2cc3nc4ccccc4nc3cc(-c3ccccc3)[nH][nH]2)cc1
[1]
  TGI: > 100 µM
[2]
  TGI: > 100 µM
[3]
  TGI: > 100 µM
[4]
  TGI: > 100 µM
[5]
  TGI: > 100 µM
[6]
  TGI: 88.7 µM
[7]
  TGI: 51.8 µM
[8]
  TGI: > 100 µM
[9]
  TGI: > 100 µM
[10]
  TGI: 39.5 µM

## C/C=C\C1OC1(C)c1cc(=O)c2c(C)cc3c(c2o1)C(=O)c1c(O)c(C2CC(C)(N(C)C)C(OC(C)=O)C(C)O2)cc(C2CC(N(C)C)C(O)C(C)O2)c1C3=O (stereo not given)
[1]
  TGI: 0.0721 µM
[2]
  TGI: 0.00871 µM
[3]
  TGI: 0.00888 µM
[4]
  TGI: 0.018 µM
[5]
  TGI: 1.93 µM
[6]
  TGI: 0.00762 µM
[7]
  TGI: 1.47 µM
[9]
  TGI: 0.0121 µM
[10]
  TGI: 0.0498 µM

## COc1cc2cc(C(=O)N3CC(CCl)c4ccc(NO)cc43)[nH]c2c(OC)c1OC (stereo not given)
[1]
  TGI: 0.749 µM
[2]
  TGI: 0.166 µM
[3]
  TGI: 0.774 µM
[5]
  TGI: 11.8 µM
[6]
  TGI: 0.6 µM
[7]
  TGI: > 100 µM
[8]
  TGI: 0.48 µM
[9]
  TGI: 1.99 µM
[10]
  TGI: 3.01 µM

## O=C1c2cc3c(cc2[C@@H]2C(O)[C@H]4O[C@H]4C4CCN1C42)OCO3 (stereo not given in full)
[1]
  TGI: > 37.5 µM
[3]
  TGI: > 37.5 µM
[4]
  TGI: > 37.5 µM
[5]
  TGI: > 37.5 µM
[6]
  TGI: > 37.5 µM
[7]
  TGI: > 37.5 µM
[9]
  TGI: > 37.5 µM
[10]
  TGI: > 37.5 µM

## COc1ccc2c(O)c1-c1c(OC)ccc(c1O)SSc1ccc(OC)c(c1O)-c1c(OC)ccc(c1O)SS2
[1]
  TGI: > 100 µM
[3]
  TGI: 69.8 µM
[4]
  TGI: > 100 µM
[5]
  TGI: > 100 µM
[6]
  TGI: > 100 µM
[7]
  TGI: > 100 µM
[9]
  TGI: 69.1 µM
[10]
  TGI: > 100 µM

## Nc1c(S(=O)(=O)O)cc(S(=O)(=O)O)c2ccc(N=Nc3ccccc3)c(O)c12
[1]
  TGI: > 100 µM
[2]
  TGI: > 100 µM
[3]
  TGI: > 100 µM
[4]
  TGI: > 100 µM
[5]
  TGI: > 100 µM
[6]
  TGI: > 100 µM
[7]
  TGI: > 100 µM
[8]
  TGI: > 100 µM
[9]
  TGI: > 100 µM
[10]
  TGI: > 100 µM

## Cc1nn(CNc2ccc(F)c(Cl)c2)c(=S)n1/N=C/c1ccc(-c2ccc(Cl)cc2Cl)o1
[1]
  TGI: 34.6 µM
[2]
  TGI: 38.8 µM
[3]
  TGI: 50 µM
[4]
  TGI: 46.8 µM
[5]
  TGI: 41.4 µM
[6]
  TGI: 33.7 µM
[7]
  TGI: 28.9 µM
[8]
  TGI: 44.5 µM
[9]
  TGI: 34.8 µM
[10]
  TGI: 33.2 µM

## O=C(c1ccccc1)c1ccc(N2C(=O)/C(=C/c3cccc(Oc4ccccc4)c3)N=C2c2ccccc2)c(N2C(=O)/C(=C/c3cccc(Oc4ccccc4)c3)N=C2c2ccccc2)c1
[1]
  TGI: > 100 µM
[2]
  TGI: > 100 µM
[3]
  TGI: > 100 µM
[5]
  TGI: > 100 µM
[6]
  TGI: > 100 µM
[7]
  TGI: 79.4 µM
[8]
  TGI: 69.1 µM
[10]
  TGI: > 100 µM

## CC(C)=CCC/C(C)=C/Cc1c2c(c3oc(-c4ccc(O)c(O)c4)c(O)c(=O)c3c1O)C=CC(C)(C)O2
[1]
  TGI: 10.7 µM
[2]
  TGI: 11.6 µM
[3]
  TGI: 9.5 µM
[4]
  TGI: 15.2 µM
[5]
  TGI: 9.79 µM
[6]
  TGI: 13.4 µM
[7]
  TGI: 11.2 µM
[8]
  TGI: 11.7 µM
[9]
  TGI: 7 µM
[10]
  TGI: 8.65 µM
